This note sets out measurements from patent US11084809B2, “N-((HET)arylmethyl)-heteroaryl-carboxamides compounds as kallikrein inhibitors” (KALVISTA PHARMACEUTICALS LIMITED, priority 2014, dated 2021).

What all share (type): biochemical
For one assay, the target named is Human XIa (Homo sapiens (Human), UniProt P03951). Kind of assay: Determination of the % inhibition for XIa. Particulars: 40 μM test compound, 25° C. On the procedure:
Determination of the % Inhibition for XIa
Human XIa (Enzyme Research Laboratories) was incubated at 25° C. with the fluorogenic substrate Z-Gly-Pro-Arg-AFC and 40 μM of the test compound. Residual enzyme activity (initial rate of reaction) was determined by measuring the change in optical absorbance at 410 nm.

In the next assay the target is Human KLK1 (Homo sapiens (Human), UniProt P06870). Kind of assay: Determination of the IC50 for KLK1. Conditions: human KLK1, 25° C., substrate H-DVal-Leu-Arg-AFC. On the procedure: Determination of the IC50 for KLK1
Sequence of Human KLK1 (P06870 25-262): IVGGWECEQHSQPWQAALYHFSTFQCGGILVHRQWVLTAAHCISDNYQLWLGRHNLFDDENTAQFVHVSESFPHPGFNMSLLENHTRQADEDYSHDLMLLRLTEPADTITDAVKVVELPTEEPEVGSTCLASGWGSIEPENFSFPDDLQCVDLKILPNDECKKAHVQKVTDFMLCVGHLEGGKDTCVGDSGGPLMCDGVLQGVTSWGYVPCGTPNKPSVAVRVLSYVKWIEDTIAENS
Human KLK1 (Callbiochem) was incubated at 25° C. with the fluorogenic substrate H-DVal-Leu-Arg-AFC and various concentrations of the test compound. Residual enzyme activity (initial rate of reaction) was determined by measuring the change in […] at 410 nm and the IC50 value for the test compound was determined.

Another assay addresses Human plasma kallikrein (Homo sapiens (Human), UniProt P03952). Kind of assay: Determination of the IC50 for plasma kallikrein. Particulars: read-out: IC50 (human PKal). Here is the method:
Determination of the IC50 for plasma kallikrein
Human plasma kallikrein (Protogen) was incubated at 25° C. with the fluorogenic substrate H-DPro-Phe-Arg-AFC and various concentrations of the test compound. Residual enzyme activity (initial rate of reaction) was determined by measuring the change in […] at 410 nm and the IC50 value for the test compound was determined.

Sequence of Human XIa (P03951 388-625): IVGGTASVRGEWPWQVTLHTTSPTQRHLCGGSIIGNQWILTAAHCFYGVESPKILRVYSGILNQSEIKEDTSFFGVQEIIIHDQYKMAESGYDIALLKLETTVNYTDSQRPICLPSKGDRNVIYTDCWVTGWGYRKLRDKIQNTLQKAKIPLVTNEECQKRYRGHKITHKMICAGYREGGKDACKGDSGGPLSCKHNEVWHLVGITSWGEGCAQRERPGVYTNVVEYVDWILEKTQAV
Sequence of Human XIa (P03951 19-387 partner): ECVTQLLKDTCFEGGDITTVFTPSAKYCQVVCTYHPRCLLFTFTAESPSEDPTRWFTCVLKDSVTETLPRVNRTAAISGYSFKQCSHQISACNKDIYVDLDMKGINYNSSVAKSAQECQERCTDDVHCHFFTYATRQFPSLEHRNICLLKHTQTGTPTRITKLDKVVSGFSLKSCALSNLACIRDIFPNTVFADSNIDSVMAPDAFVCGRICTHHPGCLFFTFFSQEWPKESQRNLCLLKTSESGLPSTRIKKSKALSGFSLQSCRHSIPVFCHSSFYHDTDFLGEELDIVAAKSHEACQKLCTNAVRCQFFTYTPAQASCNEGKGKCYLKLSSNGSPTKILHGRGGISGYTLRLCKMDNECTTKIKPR
Sequence of Human plasma kallikrein (P03952 391-638): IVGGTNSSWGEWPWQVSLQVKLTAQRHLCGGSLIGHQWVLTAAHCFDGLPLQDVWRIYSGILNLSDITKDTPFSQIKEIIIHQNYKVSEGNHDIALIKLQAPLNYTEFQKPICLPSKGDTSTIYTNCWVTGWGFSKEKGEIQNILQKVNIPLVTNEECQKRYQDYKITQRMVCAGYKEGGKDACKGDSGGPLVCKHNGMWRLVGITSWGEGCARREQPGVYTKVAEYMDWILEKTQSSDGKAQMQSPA
Sequence of Human plasma kallikrein (P03952 20-390 partner): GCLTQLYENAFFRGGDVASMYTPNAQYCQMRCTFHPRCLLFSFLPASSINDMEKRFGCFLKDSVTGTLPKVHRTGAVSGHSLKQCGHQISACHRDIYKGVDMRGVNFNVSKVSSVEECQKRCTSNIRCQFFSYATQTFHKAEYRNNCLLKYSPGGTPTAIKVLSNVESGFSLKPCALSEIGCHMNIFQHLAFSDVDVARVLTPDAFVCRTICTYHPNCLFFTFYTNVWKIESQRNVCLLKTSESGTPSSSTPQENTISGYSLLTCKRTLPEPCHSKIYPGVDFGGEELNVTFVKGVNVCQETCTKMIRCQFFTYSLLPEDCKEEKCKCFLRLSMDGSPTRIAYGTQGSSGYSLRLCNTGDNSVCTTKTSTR

Take `COc1cccc(CNC(=O)c2cn(Cc3ccc(Cn4ccccc4=O)cc3)nc2C2CC2)c1F` [Example 52, 3-cyclopropyl-N-[(2-fluoro-3-methoxyphenyl)methyl]-1-({4-[(2-oxopyridin-1-yl)methyl]phenyl}methyl)pyrazole-4-carboxamide]: the “% Inhibition @ 40 μM (human FXIa)” value on Human XIa was 1%.

Turning to `NC(=O)c1cccc(CNC(=O)c2cn(Cc3ccc(Cn4ccccc4=O)cc3)nc2C2CC2)c1` [Example 49, N-[(3-carbamoylphenyl)methyl]-3-cyclopropyl-1-({4-[(2-oxopyridin-1-yl)methyl]phenyl}methyl)pyrazole-4-carboxamide], at Human XIa, the “% Inhibition @ 40 μM (human FXIa)” value was 0%. On to “N-[(2,4-dimethylphenyl)methyl]-1-({4-[(4-methylpyrazol-1-yl)methyl]phenyl}methyl)-3-(trifluoromethyl)pyrazole-4-carboxamide [Example 24]”, for which the IC50 is > 10000 nM against Human KLK1 and 717 nM on Human plasma kallikrein. In the case of “N-[(2,6-dimethylphenyl)methyl]-1-({4-[(4-methylpyrazol-1-yl)methyl]phenyl}methyl)-3-(trifluoromethyl)pyrazole-4-carboxamide [Example 25]”, the IC50 against Human KLK1 is > 10000 nM; at Human plasma kallikrein, 1840 nM. In the case of `CCOc1cccc(CNC(=O)c2cn(Cc3ccc(Cn4cc(C)cn4)cc3)nc2C(F)(F)F)c1` [Example 6, N-[(3-ethoxyphenyl)methyl]-1-({4-[(4-methylpyrazol-1-yl)methyl]phenyl}methyl)-3-(trifluoromethyl)pyrazole-4-carboxamide], the “% Inhibition @ 40 μM (human FXIa)” value on Human XIa is recorded as 0%. Besides, the IC50 against Human KLK1 was > 10000 nM. In the case of `Nc1nn(Cc2ccc(Cn3ccccc3=O)cc2)cc1C(=O)NCc1ccc(OC(F)(F)F)cc1` [Example 58, 3-amino-1-({4-[(2-oxopyridin-1-yl)methyl]phenyl}methyl)-N-{[4-(trifluoromethoxy)phenyl]methyl}pyrazole-4-carboxamide], the “% Inhibition @ 40 μM (human FXIa)” value on Human XIa is on record as 0%.

In general, IC50 refers to the midpoint of a concentration-inhibition curve.
